Data reported in patent US20160039825A1 (BIOGEN MA INC., priority 2013, published 2016).

Molecular target: T1, Human ATX protein (Homo sapiens, UniProt Q13822)
T1 construct: made in house
Test: Autotaxin (ATX) assay, FRET with FS-3 substrate
Assay type: biochemical
Conditions: upper bound bins (no greater than 100, 250 or 500 nM); FS-3 2 μM, ATX 1.0 μg/mL
Text: ATX (Autotaxin) is a 125 KDa glycoprotein with lysophospholipase D (LPLD) activity that generates the bioactive lipid lysophosphatidic acid (LPA) from lysophosphatidylcholine (LPC). The ATX biochemical assay utilizes a FRET (fluorescence resonance energy transfer) technology platform. The fluorescence signal of FRET substrate FS-3 is quenched due to intra-molecular FRET of a fluorophore to a non-fluorescing quencher (Ferguson, C. G., et al., Org Lett. 2006 May 11; 8(10): 2023-2026, which is incorporated by reference in its entirety). ATX catalyzes the hydrolysis of the substrate which separates the dabsyl quencher from the fluorescein reporter, which becomes fluorescent. The reaction is monitored by a SpectraMax M5 (Molecular Devices, Sunnyvale, Calif.) with at excitation wavelength 485 nm and emission wavelength […].
Fatty acid free-BSA (Sigma A8806): 10 mg/mL in H2O, stored at 4° C.
2×ATX assay buffer: 100 mM Tris, 280 mM NaCl, 10 mM KCl, 2 mM CaCl2, 2 mM MgCl2, pH 7.4.
Human ATX protein: expressed and purified in house. Stored at −80° C.
Substrate FS-3 (Echelon, L-2000): 100 μg in 77.74 μL H2O (1 mM stock), stored at −20° C.
384-well flat bottom plates—Corning #3575.
Compound dilution—All compounds were provided at 10 mM in 100% DMSO. In the first well, 2 μL of 10 mM compound was added to 78 μL of DMSO (1:40 dilution). In subsequent wells 3-fold dilution (total 10 dilutions) were performed.
1×ATX assay buffer was made up with a final concentration of 1 mg/mL fatty acid free-BSA using 2×ATX assay buffer, 10 mg/ml fatty acid free-BSA and ddH2O.
ATX protein was diluted with 1×ATX assay buffer to a concentration of 1.32 μg/mL (1.32×). 38 μL was added per well to the assay plate. The final concentration of ATX in the reaction as 1.0 μg/mL.
2 μL per well of compounds was transferred to provide the desired concentration. The plate was centrifuged, then incubated at room temperature for 30 minutes on the shaker.
FS-3 was diluted with 1×ATX assay buffer to a concentration of FS-3 of 10 μM (5×). Then, 10 μL was added per well to the assay plate. The final concentration of FS-3 in the reaction was 2 μM. The plate was centrifuged. The plate was kept shaking at room temperature for 2 hours. Because FS-3 substrate is light sensitive, plates were kept covered and protected from light.
Fluorescence was measured using SpectraMax M5 (excitation at 485 nm/emission at 538 nm, top read).

Row | Compound | IC50 [nM]
1 | O=C(OCc1cc(C(F)(F)F)cc(C(F)(F)F)c1)N1CCCn2nc(C(=O)N3CCOCC3)cc2C1 [Example 30, 3,5-Bis(trifluoromethyl)benzyl 2-(morpholine-4-carbonyl)-7,8-dihydro-4H-pyrazolo[1,5-a][1,4]diazepine-5(6H)-carboxylate] | ≤ 100
2 | O=C(OCc1cc(C(F)(F)F)cc(C(F)(F)F)c1)N1CCCn2nc(C(=O)N3CCC(O)CC3)cc2C1 [Example 31, 3,5-Bis(trifluoromethyl)benzyl 2-(4-hydroxypiperidine-1-carbonyl)-7,8-dihydro-4H-pyrazolo[1,5-a][1,4]diazepine-5(6H)-carboxylate] | ≤ 100
3 | O=C(OCc1cc(C(F)(F)F)cc(C(F)(F)F)c1)N1CCCn2nc(C(=O)N3CCC(F)CC3)cc2C1 [Example 32, 3,5-Bis(trifluoromethyl)benzyl 2-(4-fluoropiperidine-1-carbonyl)-7,8-dihydro-4H-pyrazolo[1,5-a][1,4]diazepine-5(6H)-carboxylate] | ≤ 100
4 | O=C(O)C1CC2CCCC(C1)N2C(=O)c1cc2n(n1)CCN(C(=O)OCc1cc(Cl)cc(Cl)c1)C2 (stereo not shown) [Example 41, 9-(5-(((3,5-Dichlorobenzyl)oxy)carbonyl)-4,5,6,7-tetrahydropyrazolo[1,5-a]pyrazine-2-carbonyl)-9-azabicyclo[3.3.1]nonane-3-carboxylic acid] | ≤ 100
5 | O=C(O)C1CC2CCCC(C1)N2C(=O)c1cc2n(n1)CCN(C(=O)OCc1cccc(Cl)c1)C2 (stereo not shown) [Example 42, 9-(5-(((3-chlorobenzyl)oxy)carbonyl)-4,5,6,7-tetrahydropyrazolo[1,5-a]pyrazine-2-carbonyl)-9-azabicyclo[3.3.1]nonane-3-carboxylic acid] | ≤ 500
6 | O=C(O)C1CC2CCCC(C1)N2C(=O)c1cc2n(n1)CCN(C(=O)OCc1cccc(C(F)(F)F)c1)C2 (stereo not shown) [Example 43, 9-(5-(((3-(Trifluoromethyl)benzyl)oxy)carbonyl)-4,5,6,7-tetrahydropyrazolo[1,5-a]pyrazine-2-carbonyl)-9-azabicyclo[3.3.1]nonane-3-carboxylic acid] | ≤ 100
7 | O=C(O)C1CC2CCCC(C1)N2C(=O)c1cc2n(n1)CCN(C(=O)OCc1ccc(C(F)(F)F)cc1)C2 (stereo not shown) [Example 45, 9-(5-(((4-(Trifluoromethyl)benzyl)oxy)carbonyl)-4,5,6,7-tetrahydropyrazolo[1,5-a]pyrazine-2-carbonyl)-9-azabicyclo[3.3.1]nonane-3-carboxylic acid] | ≤ 250
8 | O=C(O)C1CC2CCCC(C1)N2C(=O)c1cc2n(n1)CCN(C(=O)OCc1cc(F)cc(Cl)c1)C2 (stereo not shown) [Example 46, 9-(5-(((3-Chloro-5-fluorobenzyl)oxy)carbonyl)-4,5,6,7-tetrahydropyrazolo[1,5-a]pyrazine-2-carbonyl)-9-azabicyclo[3.3.1]nonane-3-carboxylic acid] | ≤ 100
9 | O=C(O)C1CC2CCCC(C1)N2C(=O)c1cc2n(n1)CCN(C(=O)OCc1cc(C(F)(F)F)cc(C(F)(F)F)c1)C2 (stereo not shown) [Example 48, 9-(5-(((3,5-Bis(trifluoromethyl)benzyl)oxy)carbonyl)-4,5,6,7-tetrahydropyrazolo[1,5-a]pyrazine-2-carbonyl)-9-azabicyclo[3.3.1]nonane-3-carboxylic acid] | ≤ 100
10 | O=C(O)C1CC2CCCC(C1)N2C(=O)c1cc2n(n1)CCCN(C(=O)NCc1cc(Cl)cc(Cl)c1)C2 (stereo not shown) [Example 49, 9-(5-((3,5-Dichlorobenzyl)carbamoyl)-5,6,7,8-tetrahydro-4H-pyrazolo[1,5-a][1,4]diazepine-2-carbonyl)-9-azabicyclo[3.3.1]nonane-3-carboxylic acid] | ≤ 100
11 | O=C(O)C1CC2CCCC(C1)N2C(=O)c1cc2n(n1)CCCN(C(=O)OCc1cccc(Cl)c1)C2 (stereo not shown) [Example 57, 9-(5-((3-Chlorobenzyloxy)carbonyl)-5,6,7,8-tetrahydro-4H-pyrazolo[1,5-a][1,4]diazepine-2-carbonyl)-9-aza-bicyclo[3.3.1]nonane-3-carboxylic acid] | ≤ 250
12 | O=C(O)C1CC2CCCC(C1)N2C(=O)c1cc2n(n1)CCCN(C(=O)OCc1cccc(C(F)(F)F)c1)C2 (stereo not shown) [Example 58, 9-(5-((3-(Trifluoromethyl)benzyloxy)carbonyl)-5,6,7,8-tetrahydro-4H-pyrazolo[1,5-a][1,4]diazepine-2-carbonyl)-9-aza-bicyclo[3.3.1]nonane-3-carboxylic acid] | ≤ 100
13 | O=C(O)C1CC2CCCC(C1)N2C(=O)c1cc2n(n1)CCCN(C(=O)OCc1ccc(Cl)cc1)C2 (stereo not shown) [Example 59, 9-(5-((4-Chlorobenzyloxy)carbonyl)-5,6,7,8-tetrahydro-4H-pyrazolo[1,5-a][1,4]diazepine-2-carbonyl)-9-aza-bicyclo[3.3.1]nonane-3-carboxylic acid] | ≤ 100
14 | O=C(O)C1CC2CCCC(C1)N2C(=O)c1cc2n(n1)CCCN(C(=O)OCc1ccc(C(F)(F)F)cc1)C2 (stereo not shown) [Example 60] | ≤ 100
15 | O=C(O)C1CC2CCCC(C1)N2C(=O)c1cc2n(n1)CCCN(C(=O)OCc1cc(F)cc(Cl)c1)C2 (stereo not shown) [Example 61, 9-(5-((3-Chloro-5-fluorobenzyloxy)carbonyl)-5,6,7,8-tetrahydro-4H-pyrazolo[1,5-a][1,4]diazepine-2-carbonyl)-9-aza-bicyclo[3.3.1]nonane-3-carboxylic acid] | ≤ 100
16 | O=C(O)C1CC2CCCC(C1)N2C(=O)c1cc2n(n1)CCCN(C(=O)OCc1cc(F)cc(F)c1)C2 (stereo not shown) [Example 62, 9-(5-((3,5-Trifluorobenzyloxy)carbonyl)-5,6,7,8-tetrahydro-4H-pyrazolo[1,5-a][1,4]diazepine-2-carbonyl)-9-aza-bicyclo[3.3.1]nonane-3-carboxylic acid] | ≤ 100
17 | O=C(O)C1CC2CCCC(C1)N2C(=O)c1cc2n(n1)CCCN(C(=O)OCc1cc(C(F)(F)F)cc(C(F)(F)F)c1)C2 (stereo not shown) [Example 63, 9-(5-((3,5-Bis(trifluoromethyl)benzyloxy)carbonyl)-5,6,7,8-tetrahydro-4H-pyrazolo[1,5-a][1,4]diazepine-2-carbonyl)-9-aza-bicyclo[3.3.1]nonane-3-carboxylic acid] | ≤ 100
18 | O=C(O)c1cc2n(n1)CCCN(C(=O)OCc1cc(F)cc(C(F)(F)F)c1)C2 [Example 64, 5-(((3-Fluoro-5-(trifluoromethyl)benzyl)oxy)carbonyl)-5,6,7,8-tetrahydro-4H-pyrazolo[1,5-a][1,4]diazepine-2-carboxylic acid] | ≤ 100
19 | O=C(O)c1cc2n(n1)CCCN(C(=O)OCc1cc(Cl)cc(C(F)(F)F)c1)C2 [Example 65, 5-(((3-Chloro-5-(trifluoromethyl)benzyl)oxy)carbonyl)-5,6,7,8-tetrahydro-4H-pyrazolo[1,5-a][1,4]diazepine-2-carboxylic acid] | ≤ 100
20 | O=C(O)c1cc2n(n1)CCCN(C(=O)OCc1cccc(C(F)(F)F)c1)C2 [Example 67, 5-(((3-(Trifluoromethyl)benzyl)oxy)carbonyl)-5,6,7,8-tetrahydro-4H-pyrazolo[1,5-a][1,4]diazepine-2-carboxylic acid] | ≤ 500
21 | O=C(O)c1cc2n(n1)CCCN(C(=O)OCc1cc(F)cc(Cl)c1)C2 [Example 68, 5-(((3-Chloro-5-fluorobenzyl)oxy)carbonyl)-5,6,7,8-tetrahydro-4H-pyrazolo[1,5-a][1,4]diazepine-2-carboxylic acid] | ≤ 500
22 | O=C(O)c1cc2n(n1)CCCN(C(=O)OCc1cc(F)cc(Br)c1)C2 [Example 75, 5-(((3-Bromo-5-fluorobenzyl)oxy)carbonyl)-5,6,7,8-tetrahydro-4H-pyrazolo[1,5-a][1,4]diazepine-2-carb oxylic acid] | ≤ 500
